This note sets out measurements from patent US20130111611A1, “METHOD TO MEASURE THE METABOLIC RATE OR RATE OF GLUCOSE CONSUMPTION OF CELLS OR TISSUES WITH HIGH SPATIOTEMPORAL RESOLUTION USING A GLUCOSE NANOSENSOR” (CARNEGIE, INSTITUTION OF WASHINGTON, priority 2010, published 2013).

The subject of this experiment is cultured astrocytes. The experiment is described as follows: Intracellular glucose and glycolytic rate in cultured astrocytes with FRET glucose nanosensor (ITM). The format is cell-based, mouse. The settings on record: for glycolytic rate obtained with the GLUT inhibitor: cultured astrocytes, n=20 cells in three paired experiments, not significantly different between inhibitors; for effect on the intracellular concentration of glucose: cultured astrocytes exposed to the compound, FIG. 3a.

From the text: In another embodiment, the disruption of the glucose steady-state can be attained by blocking the glucose transporter GLUT with a suitable inhibitor (ITM).
Independent of the embodiment of the method used to disrupt the steady-state, the rate of glycolysis is estimated by fitting a monoexponential function to the time course of decay. In one embodiment, the metabolic rate is computed from the rate of glucose concentration decrease at the point when the intracellular concentration becomes equal to the extracellular concentration, for instance at 0.3 mM (interrupted line in FIG. 2b). In a second embodiment, in the presence of a GLUT blocker, the metabolic rate is computed from the rate of glucose concentration decrease at any glucose concentration.
Animals used were mixed F1 male mice (C57BU6J×CBA/J), kept in an animal room under SPF conditions at a room temperature of 20±2° C., in a 12/12 h light/dark cycle with free access to food and water. All experiments were approved by the Centro de Estudios Científicos Animal Care and Use Committee. Mixed cortical cultures of neuronal and glial cells were prepared from 1-3 day-old neonatal mice as described in Loaiza et al.^19, except that N1-N2/MEM was replaced by B27-supplemented Neurobasal medium (Gibco). Cultures were maintained at 37° C. in a humidified atmosphere of 5% CO2. At days 5-7, cultures in 35 mm dishes were transfected with 5 μg plasmid DNA using Lipofectamine 2000 (Gibco) or alternatively, exposed to 5×10^6 PFU of adenoviral vector.
Experiments were carried out at room temperature (22-25° C.). Cultured cells were imaged in HEPES-buffered saline containing (in mM): 136 NaCl, 3 KCl, 1.25 CaCl2, 1.25 MgSO4, 1-2 glucose, 2 sodium lactate, 10 HEPES, pH 7.4 or in 95% O2/5% CO2-gassed buffer of the following composition (in mM): 112 NaCl, 3 KCl, 1.25 CaCl2, 1.25 MgCl2, 1-2 glucose, 2 sodium lactate, 10 HEPES, 24 NaHCO3, pH 7.4. Brain slices were superfused with a 95% O2/5% CO2-gassed buffer containing (in mM): 126 NaCl, 3 KCl, 1.25 NaH2PO4, 1.25 CaCl2, 1.25 MgCl2, 2-3 glucose, 1 sodium lactate, 26 NaHCO3, pH 7.4. When using higher K^+ concentrations, NaCl was adjusted to maintain isotonicity. Cultures and slices were imaged with an Olympus IX70 inverted microscope equipped with a 40× oil-immersion objective, a Cairn monochromator with Optosplit (Faversham, UK), and a Hamamatsu Orca camera (Hamamatsu City, Japan) controlled by Kinetics software. For FRET measurements, CFP was excited at 430 nm for 400 ms. Because of the very high FRET efficiency of FLII12 Pglu600μ ? , which results in low CFP signal^7, we opted for not using the CFP signal in our protocol. Instead, YFP/citrine was excited for 50 ms, which provided a sugar-insensitive denominator for the FRET ratio. […]

In the case of `O=C(CCc1ccc(O)cc1)c1c(O)cc(O)cc1O` [Phloretin], the “glycolytic rate obtained with the GLUT inhibitor” value is 1.7 ± 0.3 µM/s. Turning to `C=C1[C@@H](C)[C@H]2[C@H](Cc3ccccc3)NC(=O)[C@]23OC(=O)/C=C/[C@H](O)CCC[C@@H](C)C/C=C/[C@H]3[C@@H]1O` [cytochalasin B], the “effect on the intracellular concentration of glucose” value is listed as “linear decrease in the concentration of glucose” and the “glycolytic rate obtained with the GLUT inhibitor” value was determined as 1.8 ± 0.3 µM/s.

For the molecule `C=C1[C@@H](C)[C@H]2[C@H](Cc3ccccc3)NC(=O)[C@]23[C@H](OC(C)=O)/C=C/[C@@](C)(O)C(=O)[C@@H](C)C/C=C/[C@H]3[C@@H]1O` [cytochalasin D], the “effect on the intracellular concentration of glucose” value is reported as “did not affect the concentration of glucose”.
